Experimental findings from US9492471B2, “Methods of treating a disease or disorder associated with Bruton'S Tyrosine Kinase” (Celgene Avilomics Research, Inc., priority 2013, dated 2016) are described below.

Assay in all cases: HotSpot kinase profiling
Assay type in all cases: biochemical

One experiment deals with T1, FGFR2 (Homo sapiens, UniProt P21802).
T1 construct: purchased Reaction Biology Corp
As to the method:
(§1) The binding assay system for profiling kinase activity were based upon HotSpot technology (Reaction Biology Corp.; Malvern, Pa., USA) and utilized radio-isotope-based P81 filtration. […] Substrates for the various kinases tested against Compound 2 (substrate information available on the Reaction Biology Corp. website) were prepared fresh daily in Reaction Buffer. Any required cofactors were then added to the substrate solution. The identification and selection of the appropriate cofactor for each kinase is within the ability of a person skilled in the art. See, for example, Handbook of Assay Development in Drug Discovery, Ed. Lisa K. Minor, 2006: CRC Press, Boca Raton, Fla.; Gao et al., “A broad activity screen in support of a chemogenomic map for kinase signalling research and drug discovery,” Biochem J. 2013, 451(2): 313-28; and Eglen et al., “Drug discovery and the human kinome: Recent trends,” Pharmacology & Therapeutics 2011, 130(2): 144-156. The kinase was then added to the substrate solution and gently mixed. […] This was followed by incubation at room temperature for 2 h. The reaction was terminated and any unreacted phosphate was washed away using 0.1% phosphoric acid prior to detection utilizing a proprietary technology. […] DMSO was used as the negative control.
(§2) Percent inhibition was expressed as an average where the assay was performed more than once, e.g., in duplicate.

In a further experiment the target is T2, ABL2/ARG (Homo sapiens, UniProt P42684).
T2 construct: purchased Reaction Biology Corp
T2 sequence (P42684 whole entry): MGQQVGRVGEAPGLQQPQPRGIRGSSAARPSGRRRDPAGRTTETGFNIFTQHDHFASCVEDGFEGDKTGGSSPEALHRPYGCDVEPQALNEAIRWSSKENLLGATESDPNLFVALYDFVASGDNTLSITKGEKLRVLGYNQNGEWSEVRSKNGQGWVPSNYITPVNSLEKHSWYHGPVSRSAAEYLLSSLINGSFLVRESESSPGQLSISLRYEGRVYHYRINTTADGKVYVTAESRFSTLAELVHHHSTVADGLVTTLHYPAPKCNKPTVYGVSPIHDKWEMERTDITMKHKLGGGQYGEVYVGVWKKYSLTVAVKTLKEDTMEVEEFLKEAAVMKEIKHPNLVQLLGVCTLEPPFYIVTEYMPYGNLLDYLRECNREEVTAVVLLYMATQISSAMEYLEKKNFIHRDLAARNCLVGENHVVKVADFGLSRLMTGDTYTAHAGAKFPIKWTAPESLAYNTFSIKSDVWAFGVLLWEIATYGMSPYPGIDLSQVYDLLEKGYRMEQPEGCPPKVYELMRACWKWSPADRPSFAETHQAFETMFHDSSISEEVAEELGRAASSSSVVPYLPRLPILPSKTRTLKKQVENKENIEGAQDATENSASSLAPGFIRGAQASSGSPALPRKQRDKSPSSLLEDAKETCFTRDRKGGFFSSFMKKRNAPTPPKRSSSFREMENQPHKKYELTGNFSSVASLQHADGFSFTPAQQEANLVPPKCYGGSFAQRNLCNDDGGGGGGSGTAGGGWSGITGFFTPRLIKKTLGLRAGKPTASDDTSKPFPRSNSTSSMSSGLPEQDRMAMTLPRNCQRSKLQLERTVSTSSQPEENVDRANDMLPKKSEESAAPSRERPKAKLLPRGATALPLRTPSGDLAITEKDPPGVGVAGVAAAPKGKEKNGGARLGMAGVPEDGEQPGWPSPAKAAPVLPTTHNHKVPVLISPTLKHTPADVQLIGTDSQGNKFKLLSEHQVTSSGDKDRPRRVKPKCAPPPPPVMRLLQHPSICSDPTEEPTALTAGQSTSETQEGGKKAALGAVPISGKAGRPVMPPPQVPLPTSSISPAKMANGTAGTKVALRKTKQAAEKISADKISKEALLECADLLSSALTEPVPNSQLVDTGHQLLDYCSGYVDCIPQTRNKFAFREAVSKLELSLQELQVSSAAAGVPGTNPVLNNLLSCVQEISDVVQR
As to the method: as §1, §2

A further experiment has as its target T3, AKT3 (Homo sapiens, UniProt Q9Y243).
T3 construct: purchased Reaction Biology Corp
On the procedure: as §1, §2

The next experiment concerns the target T4, IKKa/CHUK (Homo sapiens, UniProt O15111).
T4 construct: purchased Reaction Biology Corp
T4 sequence (O15111 1-745): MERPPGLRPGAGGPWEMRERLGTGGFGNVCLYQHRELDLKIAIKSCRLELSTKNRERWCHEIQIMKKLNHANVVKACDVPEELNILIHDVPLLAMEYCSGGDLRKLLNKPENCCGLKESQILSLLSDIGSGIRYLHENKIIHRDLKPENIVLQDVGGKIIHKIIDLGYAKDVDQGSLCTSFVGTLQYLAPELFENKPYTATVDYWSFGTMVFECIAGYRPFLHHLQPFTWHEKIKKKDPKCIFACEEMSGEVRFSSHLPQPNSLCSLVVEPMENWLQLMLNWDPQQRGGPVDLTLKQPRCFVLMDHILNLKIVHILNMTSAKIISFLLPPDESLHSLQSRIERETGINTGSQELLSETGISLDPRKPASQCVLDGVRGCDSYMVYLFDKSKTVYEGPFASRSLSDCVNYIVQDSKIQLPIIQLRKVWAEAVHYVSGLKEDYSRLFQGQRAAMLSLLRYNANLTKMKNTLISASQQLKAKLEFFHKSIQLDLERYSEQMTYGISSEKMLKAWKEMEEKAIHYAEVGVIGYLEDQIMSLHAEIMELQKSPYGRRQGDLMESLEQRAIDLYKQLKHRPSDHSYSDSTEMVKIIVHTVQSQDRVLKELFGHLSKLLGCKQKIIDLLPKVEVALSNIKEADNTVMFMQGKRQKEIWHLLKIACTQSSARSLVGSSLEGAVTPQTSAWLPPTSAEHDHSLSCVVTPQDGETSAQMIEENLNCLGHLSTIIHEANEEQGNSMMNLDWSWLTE
As to the method:
as §1, §2

Another experiment has as its target T5, c-Kit (Homo sapiens, UniProt P10721).
T5 construct: purchased Reaction Biology Corp
On the procedure:
as §1, §2

For another experiment, the target named is T6, DYRK4 (Homo sapiens, UniProt Q9NR20).
T6 construct: purchased Reaction Biology Corp
T6 sequence (Q9NR20 1-520): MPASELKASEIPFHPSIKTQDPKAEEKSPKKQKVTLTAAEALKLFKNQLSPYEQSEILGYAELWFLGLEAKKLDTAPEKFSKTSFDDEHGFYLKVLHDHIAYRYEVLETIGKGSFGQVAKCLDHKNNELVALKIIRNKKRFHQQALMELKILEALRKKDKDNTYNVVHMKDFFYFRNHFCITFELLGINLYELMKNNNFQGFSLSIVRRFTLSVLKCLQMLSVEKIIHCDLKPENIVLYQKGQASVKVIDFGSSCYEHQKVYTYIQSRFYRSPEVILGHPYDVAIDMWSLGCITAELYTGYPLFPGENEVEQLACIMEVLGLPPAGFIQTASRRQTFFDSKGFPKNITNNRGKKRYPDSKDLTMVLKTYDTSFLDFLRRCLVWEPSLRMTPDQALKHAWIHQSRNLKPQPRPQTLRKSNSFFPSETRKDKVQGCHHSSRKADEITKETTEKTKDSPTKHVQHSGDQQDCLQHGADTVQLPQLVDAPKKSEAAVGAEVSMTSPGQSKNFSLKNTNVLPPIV
As to the method:
as §1, §2

The target of the next experiment is T7, ZAP70 (Homo sapiens, UniProt P43403).
T7 construct: purchased Reaction Biology Corp
T7 sequence (P43403 1-619): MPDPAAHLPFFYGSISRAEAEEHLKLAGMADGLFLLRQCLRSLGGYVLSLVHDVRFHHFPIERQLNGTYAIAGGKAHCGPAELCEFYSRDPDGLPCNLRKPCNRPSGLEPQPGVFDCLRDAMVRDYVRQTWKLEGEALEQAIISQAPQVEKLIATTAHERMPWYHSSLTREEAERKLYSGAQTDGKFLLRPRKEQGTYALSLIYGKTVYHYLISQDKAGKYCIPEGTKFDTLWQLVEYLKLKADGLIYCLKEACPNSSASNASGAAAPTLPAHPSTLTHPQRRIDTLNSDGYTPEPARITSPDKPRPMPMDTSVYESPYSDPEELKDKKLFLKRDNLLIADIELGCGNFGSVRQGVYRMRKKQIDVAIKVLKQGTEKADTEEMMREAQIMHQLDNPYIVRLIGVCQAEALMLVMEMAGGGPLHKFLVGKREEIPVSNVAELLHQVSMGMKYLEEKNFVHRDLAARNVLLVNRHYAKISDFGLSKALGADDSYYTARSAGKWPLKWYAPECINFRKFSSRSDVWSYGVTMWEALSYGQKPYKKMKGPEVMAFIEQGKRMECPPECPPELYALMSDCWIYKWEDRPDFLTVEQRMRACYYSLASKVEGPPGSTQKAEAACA
On the procedure: as §1, §2

Another experiment deals with T8, BRAF (Homo sapiens, UniProt P15056).
T8 construct: purchased Reaction Biology Corp
T8 sequence (P15056 whole entry): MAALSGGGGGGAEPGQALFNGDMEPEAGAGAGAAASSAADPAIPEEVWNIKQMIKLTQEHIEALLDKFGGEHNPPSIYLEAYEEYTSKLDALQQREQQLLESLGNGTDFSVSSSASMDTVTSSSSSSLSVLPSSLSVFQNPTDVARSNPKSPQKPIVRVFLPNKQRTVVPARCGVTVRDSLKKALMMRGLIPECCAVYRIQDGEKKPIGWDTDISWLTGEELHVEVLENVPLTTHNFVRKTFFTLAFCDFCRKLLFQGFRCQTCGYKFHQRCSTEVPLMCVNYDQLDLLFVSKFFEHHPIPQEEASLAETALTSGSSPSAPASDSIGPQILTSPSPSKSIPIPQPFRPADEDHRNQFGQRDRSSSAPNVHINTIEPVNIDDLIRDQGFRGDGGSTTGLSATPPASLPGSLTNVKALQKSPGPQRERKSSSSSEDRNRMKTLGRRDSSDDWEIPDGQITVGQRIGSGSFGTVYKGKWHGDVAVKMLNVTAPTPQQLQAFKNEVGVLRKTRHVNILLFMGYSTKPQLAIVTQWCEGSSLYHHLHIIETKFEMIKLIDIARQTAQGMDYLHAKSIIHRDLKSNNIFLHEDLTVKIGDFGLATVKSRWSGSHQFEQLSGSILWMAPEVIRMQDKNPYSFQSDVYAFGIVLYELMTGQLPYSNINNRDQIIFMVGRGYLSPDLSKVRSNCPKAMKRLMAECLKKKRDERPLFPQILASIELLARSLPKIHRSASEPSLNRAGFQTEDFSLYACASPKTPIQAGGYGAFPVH
On the procedure: as §1, §2

Where [1] appears, read: read-out: % Enzyme Activity (relative to DMSO controls) Run 1.
[2] abbreviates: read-out: % Enzyme Activity (relative to DMSO controls) Run 2.

Molecules are shown by their SMILES. Where two headings read alike, the source gives them in different places.

T1 sequence (P21802 22-821): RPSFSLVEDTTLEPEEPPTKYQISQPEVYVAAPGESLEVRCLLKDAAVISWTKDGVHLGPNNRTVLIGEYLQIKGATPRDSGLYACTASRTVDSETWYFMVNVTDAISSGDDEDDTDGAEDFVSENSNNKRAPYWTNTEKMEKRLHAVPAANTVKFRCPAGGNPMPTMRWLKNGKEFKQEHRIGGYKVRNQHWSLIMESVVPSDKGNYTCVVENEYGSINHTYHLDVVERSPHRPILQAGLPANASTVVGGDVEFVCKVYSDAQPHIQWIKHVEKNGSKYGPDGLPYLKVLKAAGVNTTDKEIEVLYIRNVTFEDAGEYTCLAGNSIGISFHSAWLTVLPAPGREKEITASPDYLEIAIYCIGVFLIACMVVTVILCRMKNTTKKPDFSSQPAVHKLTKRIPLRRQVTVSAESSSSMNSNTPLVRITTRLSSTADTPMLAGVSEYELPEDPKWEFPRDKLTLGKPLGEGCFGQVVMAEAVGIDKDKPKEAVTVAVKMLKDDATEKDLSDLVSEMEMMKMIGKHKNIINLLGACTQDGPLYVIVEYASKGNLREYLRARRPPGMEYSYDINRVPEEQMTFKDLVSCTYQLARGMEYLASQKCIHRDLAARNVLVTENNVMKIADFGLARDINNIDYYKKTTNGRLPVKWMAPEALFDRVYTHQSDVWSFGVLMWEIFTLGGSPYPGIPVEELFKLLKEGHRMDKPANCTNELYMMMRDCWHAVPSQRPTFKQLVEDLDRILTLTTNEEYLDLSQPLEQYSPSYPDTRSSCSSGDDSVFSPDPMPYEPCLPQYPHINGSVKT
T3 sequence (Q9Y243 whole entry): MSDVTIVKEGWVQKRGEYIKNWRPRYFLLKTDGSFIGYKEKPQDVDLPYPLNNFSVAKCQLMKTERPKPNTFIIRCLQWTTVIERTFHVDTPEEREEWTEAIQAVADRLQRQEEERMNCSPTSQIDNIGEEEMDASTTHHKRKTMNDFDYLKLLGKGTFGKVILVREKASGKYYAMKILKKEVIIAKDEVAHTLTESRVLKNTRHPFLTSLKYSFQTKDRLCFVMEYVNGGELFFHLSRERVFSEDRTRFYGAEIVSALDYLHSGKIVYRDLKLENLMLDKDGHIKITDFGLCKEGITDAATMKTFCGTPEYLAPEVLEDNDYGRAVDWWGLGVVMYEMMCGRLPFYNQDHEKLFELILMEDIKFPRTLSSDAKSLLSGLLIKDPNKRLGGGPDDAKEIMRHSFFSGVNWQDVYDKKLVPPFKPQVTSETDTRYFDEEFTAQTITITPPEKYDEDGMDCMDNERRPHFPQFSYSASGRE
T5 sequence (P10721 26-976): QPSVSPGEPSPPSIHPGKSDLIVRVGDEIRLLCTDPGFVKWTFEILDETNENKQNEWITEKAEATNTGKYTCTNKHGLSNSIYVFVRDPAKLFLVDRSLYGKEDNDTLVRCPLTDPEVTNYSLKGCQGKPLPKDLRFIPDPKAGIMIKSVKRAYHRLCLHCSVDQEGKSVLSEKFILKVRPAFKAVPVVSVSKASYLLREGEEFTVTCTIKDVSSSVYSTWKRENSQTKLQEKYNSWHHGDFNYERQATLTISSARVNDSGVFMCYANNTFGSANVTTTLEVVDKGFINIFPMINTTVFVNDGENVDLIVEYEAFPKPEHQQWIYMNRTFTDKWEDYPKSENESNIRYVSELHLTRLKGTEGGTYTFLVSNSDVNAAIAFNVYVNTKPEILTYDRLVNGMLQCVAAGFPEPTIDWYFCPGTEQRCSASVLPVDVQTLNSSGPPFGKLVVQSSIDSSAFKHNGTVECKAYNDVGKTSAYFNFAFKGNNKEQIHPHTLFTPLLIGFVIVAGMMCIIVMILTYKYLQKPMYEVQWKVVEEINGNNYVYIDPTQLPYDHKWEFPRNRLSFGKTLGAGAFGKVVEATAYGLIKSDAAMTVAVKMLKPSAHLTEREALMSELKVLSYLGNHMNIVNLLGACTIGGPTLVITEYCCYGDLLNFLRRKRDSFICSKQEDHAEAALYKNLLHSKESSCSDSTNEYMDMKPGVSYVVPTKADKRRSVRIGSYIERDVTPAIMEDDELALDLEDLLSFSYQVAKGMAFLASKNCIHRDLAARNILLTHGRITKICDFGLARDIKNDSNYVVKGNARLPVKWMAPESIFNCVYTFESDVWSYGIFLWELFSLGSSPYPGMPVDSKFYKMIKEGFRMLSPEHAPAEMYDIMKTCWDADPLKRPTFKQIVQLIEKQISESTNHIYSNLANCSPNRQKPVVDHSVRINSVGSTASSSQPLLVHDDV

As for `C=CC(=O)Nc1cccc(Nc2nc(Nc3ccc(OCCOC)c(F)c3)ncc2F)c1` [Compound 2], the inhibition (as a rule, the change of the read-out against control, counted positive when it falls) at 3 µM against FGFR2 was 63.4%; against ABL2/ARG, 62.8%; at AKT3 it was -6.85%; on IKKa/CHUK it was 8.54%; on c-Kit it was 21.5%; against DYRK4 it was -5.35%. The inhibition at 3 µM against ZAP70 was -9.21%; on BRAF, 0.04%. Further, the remaining activity at 3 µM on FGFR2 (setting [1]) is 37.3%; on FGFR2 (setting [2]) it was 36%; at ABL2/ARG (setting [1]) it was 37.3%; at ABL2/ARG (setting [2]) it was 37.1%; at AKT3 (setting [1]), 111%; at AKT3 (setting [2]), 103%. In addition, the remaining activity at 3 µM at IKKa/CHUK (setting [1]) is 91.4%; at IKKa/CHUK (setting [2]), 91.5%; at c-Kit (setting [1]), 77.5%; at c-Kit (setting [2]), 79.5%; on DYRK4 (setting [1]), 105%; at DYRK4 (setting [2]), 106%. For the same molecule, the remaining activity at 3 µM at ZAP70 (setting [1]) amounted to 110%; at ZAP70 (setting [2]), 108%; at BRAF (setting [1]), 101%; on BRAF (setting [2]), 99.1%.
